Legend:
[1] = target: T1, SNRK (Homo sapiens, UniProt Q9NRH2); test: KINOMEscan binding; conditions: read-out: Percent Control
T1 construct: purchased Eurofins DiscoverX KINOMEscan

[2] = test system: FLT3(ITD,D835V); test: KINOMEscan binding; set-up: species or system human; conditions: 10 μM
[3] = target: T2, JAK1(JH2domain-pseudokinase) (Homo sapiens, UniProt P23458); test: KINOMEscan binding; conditions: read-out: Percent Control
T2 construct: JAK1(JH2domain-pseudokinase); purchased Eurofins DiscoverX KINOMEscan

[4] = target: T3, PIK3CA(M1043I) (Homo sapiens, UniProt P42336, M1043I); test: KINOMEscan binding; conditions: read-out: Percent Control
T3 construct: purchased Eurofins DiscoverX KINOMEscan

[5] = target: T4, ALK (Homo sapiens, UniProt Q9UM73); test: KINOMEscan binding; conditions: read-out: Percent Control
T4 construct: purchased Eurofins DiscoverX KINOMEscan

[6] = target: T5, FLT3(K663Q) (Homo sapiens, UniProt P36888, K663Q); test: KINOMEscan binding; conditions: read-out: Percent Control
T5 construct: purchased Eurofins DiscoverX KINOMEscan

[7] = target: T6, DLK (Homo sapiens, UniProt Q12852); test: KINOMEscan binding; conditions: read-out: Percent Control
T6 construct: purchased Eurofins DiscoverX KINOMEscan

[8] = target: T7, CSNK1G2 (Homo sapiens, UniProt P78368); test: KINOMEscan binding; conditions: read-out: Percent Control
T7 construct: purchased Eurofins DiscoverX KINOMEscan

[9] = target: T8, FLT3 (Homo sapiens, UniProt P36888); test: KINOMEscan binding; conditions: read-out: Percent Control
T8 construct: purchased Eurofins DiscoverX KINOMEscan

[10] = target: T9, p38-gamma (Homo sapiens, UniProt P53778); test: KINOMEscan binding; conditions: read-out: Percent Control
T9 construct: purchased Eurofins DiscoverX KINOMEscan

[11] = target: T10, ZAP70 (Homo sapiens, UniProt P43403); test: KINOMEscan binding; conditions: read-out: Percent Control
T10 construct: purchased Eurofins DiscoverX KINOMEscan

[12] = target: T11, EPHB6 (Homo sapiens, UniProt O15197); test: KINOMEscan binding; conditions: read-out: Percent Control
T11 construct: purchased Eurofins DiscoverX KINOMEscan

[13] = target: T12, IKK-epsilon (Homo sapiens, UniProt Q14164); test: KINOMEscan binding; conditions: read-out: Percent Control
T12 construct: purchased Eurofins DiscoverX KINOMEscan

[14] = target: T13, CAMK2D (Homo sapiens, UniProt Q13557); test: KINOMEscan binding; conditions: read-out: Percent Control
T13 construct: purchased Eurofins DiscoverX KINOMEscan

[15] = target: T14, SNARK (Homo sapiens, UniProt Q9H093); test: KINOMEscan binding; conditions: read-out: Percent Control
T14 construct: purchased Eurofins DiscoverX KINOMEscan

[16] = target: T15, VRK2 (Homo sapiens, UniProt Q86Y07); test: KINOMEscan binding; conditions: read-out: Percent Control
T15 construct: purchased Eurofins DiscoverX KINOMEscan

[17] = target: T16, MST3 (Homo sapiens, UniProt Q9Y6E0); test: KINOMEscan binding; conditions: read-out: Percent Control
T16 construct: purchased Eurofins DiscoverX KINOMEscan

[18] = target: T17, SIK (Homo sapiens, UniProt P57059); test: KINOMEscan binding; conditions: read-out: Percent Control
T17 construct: purchased Eurofins DiscoverX KINOMEscan

[19] = target: T18, LIMK2 (Homo sapiens, UniProt P53671); test: KINOMEscan binding; conditions: read-out: Percent Control
T18 construct: purchased Eurofins DiscoverX KINOMEscan
T18 sequence (P53671 whole entry): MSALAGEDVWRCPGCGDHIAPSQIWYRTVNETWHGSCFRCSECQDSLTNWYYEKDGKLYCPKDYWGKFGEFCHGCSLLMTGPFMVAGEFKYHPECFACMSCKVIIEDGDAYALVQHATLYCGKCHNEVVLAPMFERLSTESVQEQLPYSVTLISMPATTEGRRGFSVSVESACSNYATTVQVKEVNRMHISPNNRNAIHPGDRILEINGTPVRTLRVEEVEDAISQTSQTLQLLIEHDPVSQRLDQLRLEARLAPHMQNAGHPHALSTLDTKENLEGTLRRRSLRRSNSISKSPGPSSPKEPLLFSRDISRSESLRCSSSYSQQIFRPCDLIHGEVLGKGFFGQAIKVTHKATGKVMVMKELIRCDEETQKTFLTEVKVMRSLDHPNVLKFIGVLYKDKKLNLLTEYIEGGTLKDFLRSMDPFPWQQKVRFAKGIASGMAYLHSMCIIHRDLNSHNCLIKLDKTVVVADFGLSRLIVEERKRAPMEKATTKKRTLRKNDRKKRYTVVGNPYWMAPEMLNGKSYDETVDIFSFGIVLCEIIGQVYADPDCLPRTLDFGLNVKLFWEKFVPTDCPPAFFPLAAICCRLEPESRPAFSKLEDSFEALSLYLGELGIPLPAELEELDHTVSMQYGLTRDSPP

[20] = target: T19, NDR1 (Homo sapiens, UniProt Q15208); test: KINOMEscan binding; conditions: read-out: Percent Control
T19 construct: purchased Eurofins DiscoverX KINOMEscan
T19 sequence (Q15208 whole entry): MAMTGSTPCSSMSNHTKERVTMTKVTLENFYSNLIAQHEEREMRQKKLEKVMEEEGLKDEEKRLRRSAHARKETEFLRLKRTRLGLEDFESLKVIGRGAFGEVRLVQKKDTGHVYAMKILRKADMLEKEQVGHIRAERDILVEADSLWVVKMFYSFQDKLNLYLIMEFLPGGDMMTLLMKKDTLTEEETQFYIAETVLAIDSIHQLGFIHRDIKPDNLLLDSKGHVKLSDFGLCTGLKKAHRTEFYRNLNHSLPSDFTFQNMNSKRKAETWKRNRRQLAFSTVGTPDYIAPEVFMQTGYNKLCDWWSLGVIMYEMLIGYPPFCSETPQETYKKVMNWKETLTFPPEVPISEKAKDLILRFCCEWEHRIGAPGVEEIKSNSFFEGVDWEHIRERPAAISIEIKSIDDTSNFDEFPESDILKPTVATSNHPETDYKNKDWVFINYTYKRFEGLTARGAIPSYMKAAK

[21] = target: T20, SIK2 (Homo sapiens, UniProt Q9H0K1); test: KINOMEscan binding; conditions: read-out: Percent Control
T20 construct: purchased Eurofins DiscoverX KINOMEscan
T20 sequence (Q9H0K1 whole entry): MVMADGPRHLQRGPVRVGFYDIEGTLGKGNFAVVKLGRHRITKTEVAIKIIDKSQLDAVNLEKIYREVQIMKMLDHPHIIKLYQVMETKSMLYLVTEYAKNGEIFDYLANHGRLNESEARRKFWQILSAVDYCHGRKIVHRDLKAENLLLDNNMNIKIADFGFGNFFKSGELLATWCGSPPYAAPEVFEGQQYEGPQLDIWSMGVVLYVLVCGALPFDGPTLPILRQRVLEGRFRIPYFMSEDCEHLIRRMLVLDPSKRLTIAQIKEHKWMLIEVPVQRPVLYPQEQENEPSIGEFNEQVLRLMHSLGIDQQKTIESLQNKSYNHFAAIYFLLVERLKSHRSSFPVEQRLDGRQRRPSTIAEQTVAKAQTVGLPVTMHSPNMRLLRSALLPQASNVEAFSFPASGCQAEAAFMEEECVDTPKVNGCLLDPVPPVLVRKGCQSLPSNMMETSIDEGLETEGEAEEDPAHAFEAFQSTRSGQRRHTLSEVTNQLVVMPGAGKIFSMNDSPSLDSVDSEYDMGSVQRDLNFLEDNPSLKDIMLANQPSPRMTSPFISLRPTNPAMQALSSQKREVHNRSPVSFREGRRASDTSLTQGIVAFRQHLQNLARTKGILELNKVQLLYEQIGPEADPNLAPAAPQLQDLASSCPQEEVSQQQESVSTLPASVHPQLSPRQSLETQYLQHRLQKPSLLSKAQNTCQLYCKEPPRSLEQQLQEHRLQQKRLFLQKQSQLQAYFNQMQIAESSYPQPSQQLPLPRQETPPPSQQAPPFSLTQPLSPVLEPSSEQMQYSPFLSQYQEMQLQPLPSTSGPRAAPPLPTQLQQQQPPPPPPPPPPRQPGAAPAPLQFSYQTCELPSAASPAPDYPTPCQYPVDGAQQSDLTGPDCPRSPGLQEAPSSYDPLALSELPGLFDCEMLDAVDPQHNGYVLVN

[22] = target: T21, PFTK1 (Homo sapiens, UniProt O94921); test: KINOMEscan binding; conditions: read-out: Percent Control
T21 construct: purchased Eurofins DiscoverX KINOMEscan

[23] = target: T22, PIK3CA (Homo sapiens, UniProt P42336); test: KINOMEscan binding; conditions: read-out: Percent Control
T22 construct: purchased Eurofins DiscoverX KINOMEscan

[24] = target: T23, DCAMKL2 (Homo sapiens, UniProt Q8N568); test: KINOMEscan binding; conditions: read-out: Percent Control
T23 construct: purchased Eurofins DiscoverX KINOMEscan

[25] = target: T24, NLK (Homo sapiens, UniProt Q9UBE8); test: KINOMEscan binding; conditions: read-out: Percent Control
T24 construct: purchased Eurofins DiscoverX KINOMEscan
T24 sequence (Q9UBE8 whole entry): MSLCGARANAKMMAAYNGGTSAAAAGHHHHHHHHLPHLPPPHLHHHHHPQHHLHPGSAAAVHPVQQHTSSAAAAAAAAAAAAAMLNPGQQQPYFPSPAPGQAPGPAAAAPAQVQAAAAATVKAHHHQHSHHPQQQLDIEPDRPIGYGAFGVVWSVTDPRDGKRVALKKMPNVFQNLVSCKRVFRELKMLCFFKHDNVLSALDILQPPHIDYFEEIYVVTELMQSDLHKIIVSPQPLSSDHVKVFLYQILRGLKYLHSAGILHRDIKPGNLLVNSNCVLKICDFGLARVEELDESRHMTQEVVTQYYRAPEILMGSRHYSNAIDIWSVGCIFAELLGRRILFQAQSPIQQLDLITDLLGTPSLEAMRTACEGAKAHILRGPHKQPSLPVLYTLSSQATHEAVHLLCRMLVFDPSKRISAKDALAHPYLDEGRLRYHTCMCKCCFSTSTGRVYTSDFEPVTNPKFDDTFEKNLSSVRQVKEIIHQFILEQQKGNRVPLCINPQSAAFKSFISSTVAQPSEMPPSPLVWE

[26] = target: T25, KIT(D816H) (Homo sapiens, UniProt P10721, D816H); test: KINOMEscan binding; conditions: read-out: Percent Control
T25 construct: purchased Eurofins DiscoverX KINOMEscan

[27] = target: T26, PKN2 (Homo sapiens, UniProt Q16513); test: KINOMEscan binding; conditions: read-out: Percent Control
T26 construct: purchased Eurofins DiscoverX KINOMEscan

[28] = target: T27, DAPK1 (Homo sapiens, UniProt P53355); test: KINOMEscan binding; conditions: read-out: Percent Control
T27 construct: purchased Eurofins DiscoverX KINOMEscan

[29] = target: T28, MAP3K1 (Homo sapiens, UniProt Q13233); test: KINOMEscan binding; conditions: read-out: Percent Control
T28 construct: purchased Eurofins DiscoverX KINOMEscan

[30] = target: T29, NEK9 (Homo sapiens, UniProt Q8TD19); test: KINOMEscan binding; conditions: read-out: Percent Control
T29 construct: purchased Eurofins DiscoverX KINOMEscan

[31] = target: T30, ULK2 (Homo sapiens, UniProt Q8IYT8); test: KINOMEscan binding; conditions: read-out: Percent Control
T30 construct: purchased Eurofins DiscoverX KINOMEscan

[32] = target: T31, MST4 (Homo sapiens, UniProt Q9P289); test: KINOMEscan binding; conditions: read-out: Percent Control
T31 construct: purchased Eurofins DiscoverX KINOMEscan

[33] = target: T32, YANK2 (Homo sapiens, UniProt Q9NY57); test: KINOMEscan binding; conditions: read-out: Percent Control
T32 construct: purchased Eurofins DiscoverX KINOMEscan

[34] = target: T33, BRAF(V600E) (Homo sapiens, UniProt P15056, V600E); test: KINOMEscan binding; conditions: read-out: Percent Control
T33 construct: purchased Eurofins DiscoverX KINOMEscan

[35] = target: T34, ABL2 (Homo sapiens, UniProt P42684); test: KINOMEscan binding; conditions: read-out: Percent Control
T34 construct: purchased Eurofins DiscoverX KINOMEscan

[36] = target: T35, TEC (Homo sapiens, UniProt P42680); test: KINOMEscan binding; conditions: read-out: Percent Control
T35 construct: purchased Eurofins DiscoverX KINOMEscan
T35 sequence (P42680 whole entry): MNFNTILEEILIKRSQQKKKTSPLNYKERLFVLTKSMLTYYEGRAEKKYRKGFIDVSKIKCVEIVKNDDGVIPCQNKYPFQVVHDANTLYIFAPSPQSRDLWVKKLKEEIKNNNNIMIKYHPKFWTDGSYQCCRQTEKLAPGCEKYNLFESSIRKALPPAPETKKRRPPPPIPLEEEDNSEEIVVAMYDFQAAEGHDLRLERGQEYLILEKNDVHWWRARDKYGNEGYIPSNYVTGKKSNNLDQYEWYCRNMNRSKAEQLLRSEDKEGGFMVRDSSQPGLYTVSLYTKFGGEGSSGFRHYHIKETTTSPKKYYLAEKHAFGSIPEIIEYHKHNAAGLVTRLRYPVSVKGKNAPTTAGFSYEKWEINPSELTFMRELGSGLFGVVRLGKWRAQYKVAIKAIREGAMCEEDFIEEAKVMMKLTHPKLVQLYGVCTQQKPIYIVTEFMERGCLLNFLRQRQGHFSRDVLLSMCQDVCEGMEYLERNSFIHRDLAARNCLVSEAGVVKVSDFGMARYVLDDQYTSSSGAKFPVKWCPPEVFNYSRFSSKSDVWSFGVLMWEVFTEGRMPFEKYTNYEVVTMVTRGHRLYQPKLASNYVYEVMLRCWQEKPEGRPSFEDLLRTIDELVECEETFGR

[37] = target: T36, CDK9 (Homo sapiens, UniProt P50750); test: KINOMEscan binding; conditions: read-out: Percent Control
T36 construct: purchased Eurofins DiscoverX KINOMEscan

[38] = target: T37, CAMK2G (Homo sapiens, UniProt Q13555); test: KINOMEscan binding; conditions: read-out: Percent Control
T37 construct: purchased Eurofins DiscoverX KINOMEscan
T37 sequence (Q13555 whole entry): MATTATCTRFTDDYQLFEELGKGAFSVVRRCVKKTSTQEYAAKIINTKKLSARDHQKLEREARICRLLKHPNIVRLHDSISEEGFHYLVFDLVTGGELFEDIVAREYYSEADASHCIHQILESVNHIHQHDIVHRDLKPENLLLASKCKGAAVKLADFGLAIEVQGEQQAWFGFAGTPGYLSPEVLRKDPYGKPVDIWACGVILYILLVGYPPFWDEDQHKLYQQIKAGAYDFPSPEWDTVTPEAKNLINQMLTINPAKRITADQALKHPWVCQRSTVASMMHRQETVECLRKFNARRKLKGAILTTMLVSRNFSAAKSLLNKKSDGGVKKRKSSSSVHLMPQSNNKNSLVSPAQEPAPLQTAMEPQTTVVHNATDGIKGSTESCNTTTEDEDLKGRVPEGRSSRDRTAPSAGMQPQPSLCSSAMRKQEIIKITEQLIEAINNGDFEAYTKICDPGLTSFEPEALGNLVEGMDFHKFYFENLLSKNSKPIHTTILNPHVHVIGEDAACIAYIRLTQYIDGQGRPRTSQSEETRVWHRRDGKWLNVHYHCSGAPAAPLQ

[39] = target: T38, ICK (Homo sapiens, UniProt Q9UPZ9); test: KINOMEscan binding; conditions: read-out: Percent Control
T38 construct: purchased Eurofins DiscoverX KINOMEscan

[40] = target: T39, MAPKAPK2 (Homo sapiens, UniProt P49137); test: KINOMEscan binding; conditions: read-out: Percent Control
T39 construct: purchased Eurofins DiscoverX KINOMEscan
T39 sequence (P49137 whole entry): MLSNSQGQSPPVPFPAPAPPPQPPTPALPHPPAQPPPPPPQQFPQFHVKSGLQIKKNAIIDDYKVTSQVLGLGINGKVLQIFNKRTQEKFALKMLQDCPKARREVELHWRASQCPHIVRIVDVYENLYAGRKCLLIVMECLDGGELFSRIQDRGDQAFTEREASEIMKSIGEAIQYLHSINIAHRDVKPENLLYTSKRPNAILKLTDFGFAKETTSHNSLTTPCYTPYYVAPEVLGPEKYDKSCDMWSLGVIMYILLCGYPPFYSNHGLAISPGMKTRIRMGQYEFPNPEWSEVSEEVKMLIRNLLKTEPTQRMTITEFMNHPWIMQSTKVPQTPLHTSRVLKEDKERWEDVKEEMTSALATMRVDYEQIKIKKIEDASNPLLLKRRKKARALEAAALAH

[41] = target: T40, PAK7 (Homo sapiens, UniProt Q9P286); test: KINOMEscan binding; conditions: read-out: Percent Control
T40 construct: purchased Eurofins DiscoverX KINOMEscan
T40 sequence (Q9P286 whole entry): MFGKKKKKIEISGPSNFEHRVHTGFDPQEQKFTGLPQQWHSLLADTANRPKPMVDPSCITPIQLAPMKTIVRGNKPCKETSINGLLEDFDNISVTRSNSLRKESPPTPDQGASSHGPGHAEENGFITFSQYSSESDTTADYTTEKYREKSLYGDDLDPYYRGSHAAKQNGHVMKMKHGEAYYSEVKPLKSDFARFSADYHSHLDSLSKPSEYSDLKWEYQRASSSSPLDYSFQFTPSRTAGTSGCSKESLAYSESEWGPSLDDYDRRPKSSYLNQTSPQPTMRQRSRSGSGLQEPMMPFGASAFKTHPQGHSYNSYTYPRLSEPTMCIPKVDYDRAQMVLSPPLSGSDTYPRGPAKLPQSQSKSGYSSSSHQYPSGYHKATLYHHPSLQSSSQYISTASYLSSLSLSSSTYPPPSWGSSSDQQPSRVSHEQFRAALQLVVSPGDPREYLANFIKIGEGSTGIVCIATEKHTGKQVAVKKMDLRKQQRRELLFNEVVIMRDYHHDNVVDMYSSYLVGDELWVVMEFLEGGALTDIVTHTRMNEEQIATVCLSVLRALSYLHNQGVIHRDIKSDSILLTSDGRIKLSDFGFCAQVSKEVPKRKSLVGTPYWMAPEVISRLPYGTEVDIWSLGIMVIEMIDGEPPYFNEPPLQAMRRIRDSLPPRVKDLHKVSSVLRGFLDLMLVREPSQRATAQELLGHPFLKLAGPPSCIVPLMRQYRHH

[42] = test system: ROCK1; set-up: method as in PMID 18832915; conditions: cited from earlier work

With `CC(C)NC(=O)COc1cccc(-c2nc(Nc3ccc4[nH]ncc4c3)c3ccccc3n2)c1` [KD025, 2-(3-(4-((1H-indazol-5-yl)amino)quinazolin-2-yl)phenoxy)-N-isopropylacetamide] the remaining binding at 10 µM [1] was 14%, the “Percent Control” value [2] was 28% and the remaining binding at 10 µM [3] was 39%. It also gave a remaining binding at 10 µM [4] of 48%, a remaining binding at 10 µM [5] of 54% and a remaining binding at 10 µM [6] of 55%. For the same compound, the remaining binding at 10 µM [7] was 58%, the remaining binding at 10 µM [8] was 60% and the remaining binding at 10 µM [9] was 60%. The remaining binding at 10 µM [10] was 60%, the remaining binding at 10 µM [11] was 63% and the remaining binding at 10 µM [12] was 67%. For the same compound, the remaining binding at 10 µM [13] was 70%, the remaining binding at 10 µM [14] was 71% and the remaining binding at 10 µM [15] was 71%. It also gave a remaining binding at 10 µM [16] of 71%, a remaining binding at 10 µM [17] of 72% and a remaining binding at 10 µM [18] of 72%. The remaining binding at 10 µM [19] was 73%, the remaining binding at 10 µM [20] was 73% and the remaining binding at 10 µM [21] was 74%. For the same compound, the remaining binding at 10 µM [22] was 77%, the remaining binding at 10 µM [23] was 77% and the remaining binding at 10 µM [24] was 79%. For the same compound, the remaining binding at 10 µM [25] was 80%, the remaining binding at 10 µM [26] was 81% and the remaining binding at 10 µM [27] was 84%. It also gave a remaining binding at 10 µM [28] of 85%, a remaining binding at 10 µM [29] of 85% and a remaining binding at 10 µM [30] of 85%. For the same compound, the remaining binding at 10 µM [31] was 87%, the remaining binding at 10 µM [32] was 88% and the remaining binding at 10 µM [33] was 88%. The remaining binding at 10 µM [34] was 91%, the remaining binding at 10 µM [35] was 92% and the remaining binding at 10 µM [36] was 95%. The remaining binding at 10 µM [37] was 96%, the remaining binding at 10 µM [38] was 99% and the remaining binding at 10 µM [39] was 100%. For the same compound, the remaining binding at 10 µM [40] was 100%, the remaining binding at 10 µM [41] was 100% and the IC50 [42] was 24 µM.

From paper PMC8401933 (Molecules, 2021)
